Measured values reported in patent publication US20260364079A1 (Principia Biopharma Inc., priority 2022, published 2026).
Entries after “also recorded” stand apart in the source; their conditions may differ.

How the values were obtained:
[1] = test system: collagen-induced arthritis; assay: rat collagen-induced arthritis model; assay type: in vivo
Fc receptor signaling = assay: in vitro antibody (IgG, IgE) mediated activation of immune cells via Fc receptor signaling; assay type: cell-based
Pemphigus foliaceus = assay: treatment of dogs with newly diagnosed, naturally occurring Pemphigus foliaceus; assay type: in vivo
[2] = in comparison to first and second generation BTKi; cited from earlier work
rat Arthus reaction = assay: rat Arthus reaction; assay type: in vivo
immune thrombocytopenia = assay: mouse model of immune thrombocytopenia; assay type: in vivo; details: mouse ITP model
human B cell = assay: in vitro human B cell activation; assay type: cell-based
other TEC family members = assay: preclinical assays of binding persistence, other TEC family members; details: over time
251 kinases = assay: broad kinase enzyme inhibition panel; assay type: biochemical; details: 1 μM; of 251 kinases

CC(C)(C=C(C#N)C(=O)N1CCC[C@@H](n2nc(-c3ccc(Oc4ccccc4)cc3F)c3c(N)ncnc32)C1)N1CCN(C2COC2)CC1 (mixture of isomers) [rilzabrutinib, (R)-2-[3-[4-amino-3-(2-fluoro-4-phenoxy-phenyl)pyrazolo[3,4-d]pyrimidin-1-yl]piperidine-1-carbonyl]-4-methyl-4-[4-(oxetan-3-yl)piperazin-1-yl]pent-2-enenitrile]
disease reversal [1]: full disease reversal
antibody (IgG, IgE) mediated activation of immune cells via Fc receptor signaling (Fc receptor signaling): blocks antibody (IgG, IgE) mediated activation of immune cells via Fc receptor signaling
cases with disease safely controlled without the need for corticosteroid (Pemphigus foliaceus): 4 of 4
cross-reactivity with other molecules [2]: minimal cross-reactivity with other molecules and is low risk for off-target effects
effect on rat Arthus reaction (rat Arthus reaction): blockade of the rat Arthus reaction
platelet loss (consumption) (immune thrombocytopenia): reduction in platelet loss; also recorded: significant dose dependent reduction of platelet-loss
human B cell activation (human B cell): profoundly inhibits human B cell activation
persistence of binding to other TEC family members (other TEC family members): decayed rapidly over time
number of kinases with >90% inhibition (251 kinases): 6 kinases
